Assay results reported in US20210379035A1, “Methods Of Treating Fabry Patients Having Renal Impairment” (Amicus Therapeutics, Inc., priority 2017, published 2021).

What was measured:
[1] = ERT-naïve study population PK from sparse blood sampling; assay type: in vivo, human; conditions: ERT-naïve Fabry patients
Procedure: Thus, two Fabry patients with renal impairment were evaluated. One patient (P1) had moderate renal impairment, while the other patient (P2) had severe renal impairment. […] The comparison with the results from the ERT-naïve study allows for comparison of PK in the Fabry population with mostly normal, but some mild and a few moderately impaired Fabry patients. None of the patients in the ERT-naïve study had severe renal impairment because these patients were excluded from the study.

plasma lyso-GB3 = assay: ERT-naïve study: plasma lyso-Gb3; assay type: in vivo, human
Procedure: (§1) One study was a 24-month trial, including a 6-month double-blind, placebo-controlled period, in 67 ERT-naïve patients. The other study was an active-controlled, 18-month trial in 57 ERT-experienced patients with a 12-month open-label extension (OLE). Both the ERT-naïve and ERT-experienced studies included Fabry patients having an eGFR of ≥30 mL/min/1.73 m^2.
(§2) A further analysis of data from these studies examined annualized change in eGFRCKD-EPI, LVMi, WBC α-Gal A activity and plasma lyso-Gb3 levels based on renal function at baseline. The results for each renal subgroup are shown in Table 9 below, with the ERT-naïve study subgroups based on eGFRMDRD and the ERT-experienced study subgroups based on mGFRiohexol.

Fabry patients [2] = assay: Long-term analysis of 12 patients that completed multiple studies: eGFR; assay type: in vivo, human
Description: In addition to the studies described above, other patients also received migalastat therapy in other studies such as dose-finding studies and/or long-term extension studies. […] 12 patients that completed multiple studies were further analyzed. Linear regression was used to calculate the annualized rate of change in […] from baseline.

[3] = Additional simulations on renal impairment subjects (Example 4); set-up: species or system human; conditions: simulation
cardiac repolarization = conditions: 150 mg and 1250 mg single doses; cited from earlier work
Fabry patients [4] = assay: ERT-naïve study: LVMi; assay type: in vivo, human
Procedure: as §1, §2

[5] = Plasma and urine PK in healthy volunteers and Fabry patients (single and multiple ascending dose studies); assay type: in vivo, human; conditions: for Mean percent of the dose recovered in urine: SAD study
Fabry patients [6] = assay: Analysis of 52 ERT-naive patients by baseline proteinuria: eGFR; assay type: in vivo, human; conditions: for Annualized eGFRCKD-EPI Change Rate, Mean (SE): ERT-naive, migalastat HCl 150 mg QOD ≥17 months; for Annualized eGFR Rate of Change (eGFRMDRD), Mean (SEM): Migalastat cohort
Procedure: Another analysis was performed on patients who participated in multiple studies for the use of migalastat. […] Results for […] were compared with changes in […] reported in the literature for untreated patients with Fabry disease (natural history cohort; Schiffmann R et al. Nephrol Dial Transplant. 2009; 24:2102-11) and are shown in Table 15 below: […]

[7] = Migalastat→Migalastat 0-24 months, renal subgroup 30 to < 60
[8] = Migalastat→Migalastat 0-24 months, renal subgroup ≥60
[9] = Placebo→Migalastat 6-24 months, renal subgroup ≥60
[10] = Females, baseline urine protein 100-1000 mg/24 h
[11] = Females, baseline urine protein <100 mg/24 h

OC[C@H]1NC[C@H](O)[C@@H](O)[C@H]1O [migalastat, (2R,3S,4R,5S)-2-(hydroxymethyl) piperdine-3,4,5-triol]
Comparison to ERT-Naïve Study PK (migalastat concentration) ([1]; Pre-dose (0 h)): 8.70 ng/mL
concentration at 3 h ([1]; human, plasma, 3 Hrs Post): 1.18 µg/mL
concentration at 48 h ([1]; human, plasma, 48 h): 0.0087 µg/mL
Plasma lyso-Gb3, change from baseline, mean (plasma lyso-GB3; [7]): -29.0 nmol/L
Plasma lyso-Gb3, change from baseline, mean (plasma lyso-GB3; [8]): -7.7 nmol/L
Plasma lyso-Gb3, change from baseline, mean (plasma lyso-GB3; [9]): -20.0 nmol/L
Annualized Rate of Change in eGFRCKD-EPI (Fabry patients [2]; entire duration of migalastat treatment, Patient 1): −0.853 mL/min/1.72 m^2
Annualized Rate of Change in eGFRCKD-EPI (Fabry patients [2]; entire duration of migalastat treatment, Patient 2): 0.584 mL/min/1.72 m^2
Annualized Rate of Change in eGFRCKD-EPI (Fabry patients [2]; entire duration of migalastat treatment, Patient 3): −2.838 mL/min/1.72 m^2
Annualized Rate of Change in eGFRCKD-EPI (Fabry patients [2]; entire duration of migalastat treatment, Patient 4): 0.488 mL/min/1.72 m^2
Annualized Rate of Change in eGFRCKD-EPI (Fabry patients [2]; entire duration of migalastat treatment, Patient 5): 0.001 mL/min/1.72 m^2
Annualized Rate of Change in eGFRCKD-EPI (Fabry patients [2]; entire duration of migalastat treatment, Patient 6): −2.179 mL/min/1.72 m^2
Annualized Rate of Change in eGFRCKD-EPI (Fabry patients [2]; entire duration of migalastat treatment, Patient 7): −0.704 mL/min/1.72 m^2
Annualized Rate of Change in eGFRCKD-EPI (Fabry patients [2]; entire duration of migalastat treatment, Patient 8): −1.09 mL/min/1.72 m^2
Annualized Rate of Change in eGFRCKD-EPI (Fabry patients [2]; entire duration of migalastat treatment, Patient 9): −0.443 mL/min/1.72 m^2
Annualized Rate of Change in eGFRCKD-EPI (Fabry patients [2]; entire duration of migalastat treatment, Patient 10): 0.219 mL/min/1.72 m^2
Annualized Rate of Change in eGFRCKD-EPI (Fabry patients [2]; entire duration of migalastat treatment, Patient 11): −0.342 mL/min/1.72 m^2
Annualized Rate of Change in eGFRCKD-EPI (Fabry patients [2]; entire duration of migalastat treatment, Patient 12): −0.871 mL/min/1.72 m^2
Annualized Rate of Change in eGFRCKD-EPI (Fabry patients [2]; entire migalastat treatment period (mean exposure 8.2 years), Mean of 12 patients): −0.67 mL/min/1.72 m^2
AUC Ratio ([3]; Mild (>=60-<90) vs Normal): 1.2
AUC Ratio ([3]; Moderate (>=30-<60) vs Normal): 1.9
AUC Ratio ([3]; Severe (<30) vs Normal): 4.8
effect on cardiac repolarization (cardiac repolarization): negative
LVMi, change from baseline, mean ± SE (Fabry patients [4]; [7]): −5.5 ± 10.0 gm^2
LVMi, change from baseline, mean ± SE (Fabry patients [4]; [8]): −9.2 ± 5.8 gm^2
LVMi, change from baseline, mean ± SE (Fabry patients [4]; Placebo→Migalastat 6-24 months, renal subgroup 30 to < 60): −21.0 ± 14.1 gm^2
LVMi, change from baseline, mean ± SE (Fabry patients [4]; [9]): −3.2 ± 5.6 gm^2
Mean percent of the dose recovered in urine ([5]; 25 mg): 32.2%
Mean percent of the dose recovered in urine ([5]; 75 mg): 43.0%
Mean percent of the dose recovered in urine ([5]; 225 mg): 49.3%
Mean percent of the dose recovered in urine ([5]; 675 mg): 48.5%
excretion ([5]; human, in vivo): primarily excreted unchanged in urine
half-life ([5]; human, plasma, single-dose studies, oral, read-out: mean elimination half-lives (t1/2)): 3.04 to 4.79 h
accumulation of plasma migalastat ([5]; multiple ascending dose studies): only minimal accumulation
increase of mean Cmax and AUC0-t with dose ([5]; oral doses from 75 mg to 1250 mg): dose-proportional manner
time to maximum concentrations ([5]; single-dose studies, oral, range 1 to 6 hrs): approximately 3 hours
Annualized eGFRCKD-EPI Change Rate, Mean (SE) (Fabry patients [6]; [10]): −0.3 (1.0) mL/min/1.73 m^2
Annualized eGFRCKD-EPI Change Rate, Mean (SE) (Fabry patients [6]; [11]): −0.9 (0.4) mL/min/1.73 m^2
Annualized eGFRCKD-EPI Change Rate, Mean (SE) (Fabry patients [6]; Females, baseline urine protein >1000 mg/24 h): −2.2 (1.3) mL/min/1.73 m^2
Annualized eGFRCKD-EPI Change Rate, Mean (SE) (Fabry patients [6]; Males, baseline urine protein 100-1000 mg/24 h): 0.2 (0.8) mL/min/1.73 m^2
Annualized eGFRCKD-EPI Change Rate, Mean (SE) (Fabry patients [6]; Males, baseline urine protein <100 mg/24 h): 0.4 (1.0) mL/min/1.73 m^2
Annualized eGFRCKD-EPI Change Rate, Mean (SE) (Fabry patients [6]; Males, baseline urine protein >1000 mg/24 h): −5.1 (0.1) mL/min/1.73 m^2
Annualized eGFR Rate of Change (eGFRMDRD), Mean (SEM) (Fabry patients [6]; [10]): 1.3 (1.5) mL/min/m^2
Annualized eGFR Rate of Change (eGFRMDRD), Mean (SEM) (Fabry patients [6]; [11]): −0.9 (0.5) mL/min/m^2
